Source: the supplement of paper PMC11997997

How the values were obtained:
[1] = test system: murine bone marrow-derived macrophages; assay: area under cytotoxicity dose-response curve (AUC (% cytotoxicity x dose, relative)); higher = more cytotoxic; details: duration: 6 days; dose range: 0.13-80 uM, 8 points
Procedure, shortened: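 An 8-point, 2.5-fold dilution series (final 80–0.13 μM) was applied for 6 days at 37 °C in 5% CO2 to primary murine bone marrow-derived macrophages plated in opaque 384-well plates. Promega's CellTiter-Glo luminescence assay measured viability, and percent cytotoxicity was normalised against vehicle and positive control wells. The area under the dose–response curve, worked out in GraphPad Prism version 10, is the reported cytotoxicity measure.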

[2] = test system: Mycobacterium tuberculosis CDC1551 (intracellular, in murine BMDM); assay: area under intracellular growth-inhibition dose-response curve (AUC (% inhibition x dose, relative)); higher = more potent; details: duration: 6 days; dose range: 0.13-80 uM, 8 points
Procedure, shortened: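 Each value is an area under the growth-inhibition dose–response curve, calculated with GraphPad Prism. Infected primary murine bone marrow-derived macrophages, carrying luciferase-expressing M. tuberculosis CDC1551 at multiplicity of infection 1, were treated for 6 days with an 8-dose, 2.5-fold series (final 80–0.13 μM) in 384-well opaque plates. Readout was by Bright-Glo luciferin assay, normalised to a reference drug control and the lowest-concentration wells.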

SMILES | area under cytotoxicity dose-response curve [1] | area under intracellular growth-inhibition dose-response curve [2]
Cc1cc(Br)cnc1NC(=S)Nc1ccc(F)cc1F | 33.7 | 247
CCOc1cc(/C=N\Nc2nc(-c3ccc(C)cc3)c(NC(C)=O)s2)ccc1O | < 0 | 256
CC[C@H](CO)NCCN[C@H](CC)CO.Cl | 52.1 | 68.5
Cc1ccc(-c2nnc(C)c(N3CCCC3)n2)cc1 | 92.9 | 101
O=C(Nc1ccc(S(=O)(=O)Nc2nccs2)cc1)C(F)(F)F | 30 | 159
Cc1cc(C(=O)N/N=C/c2ccc([N+](=O)[O-])o2)c(C)o1 | 105 | 142
Cc1ccccc1-n1c(SCC(=O)N/N=C/c2c(C)nn(-c3ccccc3)c2C)nc2ccccc2c1=O | 13.8 | 203
C/C(=N\NC(=O)c1ccncc1)c1cccc(NC(=O)c2ccc(C(C)(C)C)cc2)c1 | 47.8 | 264
Cc1ccc(OCCCC(=O)NNC(=O)c2ccncc2)cc1 | 10.4 | 268
NC1=NC[C@@H](CC2CCCCC2)N1CCc1cc(C(F)(F)F)cc(C(F)(F)F)c1 | 109 | 52.6
Cc1cccc(OCCCC(=O)NNC(=O)c2ccncc2)c1 | < 0 | 224
COc1c(N2C[C@@H]3CCCN[C@@H]3C2)c(F)cc2c(=O)c(C(=O)O)cn(C3CC3)c12.Cl | 62.8 | 269
CC(NC(=O)c1cccc(F)c1)C1CC2CCC1C2 (centres undefined) | < 0 | 273
O=c1c2ccsc2ncn1Cc1ccc(Cl)cc1 | 15 | 120
C=C1C(=O)O[C@@H]2C[C@@H](C)[C@@H]3C=CC(=O)[C@@]3(C)[C@@H](OC(=O)CC(=O)O[C@H]3[C@@H]4C(=C)C(=O)O[C@@H]4C[C@@H](C)[C@@H]4C=CC(=O)[C@]43C)[C@H]12 | 35 | 87.6
C/C(CC(=O)Nc1cccc(F)c1)=N\NC(=O)c1ccncc1 | 9.96 | 272
O=[N+]([O-])c1[c][c]c(Sc2[c][c][c][c][n+]2[O-])c2nonc12 | 119 | 48.7
O=C(NNC(=S)Nc1ccc(C(=O)O)c(O)c1)c1ccncc1 | 30.7 | 170
CCCc1nnc(NC(=S)Nc2ccccc2)s1 | < 0 | 213
Cc1ccc(-n2c(C)cc(/C=N/NC(=O)c3ccncc3)c2C)c(C)c1 | < 0 | 268
O=C(N/N=C/c1ccc(OCc2cnc(Cl)s2)cc1)c1ccncc1 | 48.7 | 238

SMILES | area under cytotoxicity dose-response curve [1] | area under intracellular growth-inhibition dose-response curve [2]
CCn1c(-c2cccs2)nc2ccccc21 | 69.6 | 194
Cc1cccc(OCC(=O)NCc2ccccc2)c1 | < 0 | 210
CCOC(=O)C1=C(COC(=O)c2ccc(OC)c(S(=O)(=O)N3CCOCC3)c2)NC(=O)NC1C (centres undefined) | 65.5 | 56.9
O=C(CC1CCCCC1)NCC1CCCO1 (centres undefined) | 25.1 | 165
CC(C)[C@H](CN1CCC[C@H]1CN1C(N)=NC[C@@H]1Cc1ccccc1)N1C[C@@H](Cc2ccccc2)N(CCc2ccc(Cl)c(Cl)c2)C1=N | 52.7 | 211
Cc1cc(OCC(=O)NNC(=O)c2ccncc2)ccc1C(C)C | 34.5 | 259
CC(C)Oc1cccc(C(=O)N2CCCC2)c1 | 54.6 | 43.1
C/C(=N\NC(N)=S)c1ccncc1 | 113 | 138
CCn1c(SCc2ccc(C(=O)OC)o2)nnc1-c1c[nH]c2ccccc12 | 20.1 | 117
O=C(NCCc1ccccc1)c1ccc(Br)o1 | 46.2 | 193
NC(=S)N/N=C/c1cccc(/C=N/NC(N)=S)c1 | 91.2 | 177
CNC[C@H](CC1CCCCC1)NC[C@H](Cc1ccccc1)NCCC12CC3CC(CC(C3)C1)C2 | 43 | 104
CC(=O)c1cccc(NC(=O)NC2CCCCCCC2)c1 | 36.2 | 244
Cc1ccc(C2=NCCn3c2c2ccc(C(F)(F)F)cc2[n+]3[O-])cc1 | < 0 | 161
O=C(O)c1nc(O)nc(O)c1F | < 0 | 174
C/C(Cn1cnc([N+](=O)[O-])n1)=N\NC(=O)c1ccncc1 | 39.4 | 249
CCN(CC)CCN(C(=O)c1ccc2c(c1)OCCO2)c1nc2cc(C)cc(C)c2s1.Cl | 8.98 | 246
O=C(N/N=C/c1ccccc1C(=O)O)c1ccncc1 | 37.2 | 266
O=C(NC1CCCCC1)c1ccc2snnc2c1 | < 0 | 156
CCc1ccc(NC(=S)Nc2ccc3c[nH]nc3c2)cc1 | 33.8 | 237
Cc1ccc(C(=O)OCC(=O)NC2CCCC(C)C2C)cc1S(=O)(=O)N1CCCCC1 (centres undefined) | < 0 | 136

SMILES | area under cytotoxicity dose-response curve [1] | area under intracellular growth-inhibition dose-response curve [2]
O=C(Nc1ccc(NC(=S)NC(=O)c2ccccc2F)cc1)c1cccs1 | 13.8 | 268
Cn1c(/C=C/c2ccc([N+](=O)[O-])o2)nc2ccccc2c1=O | 53.2 | 85.8
NNC(=O)c1ccncc1 | < 0 | 272
O=C(N/N=C/c1ccccn1)c1ccncc1 | 1.91 | 262
COc1ccc(C2=NCCn3c2c2ccc(C(F)(F)F)cc2[n+]3[O-])cc1 | 108 | 95.2
C/C(=N\NC(N)=S)c1ccc(-n2ccnc2)cc1 | 69 | 195
CCCCCc1ccc(OCCCC[n+]2ccccc2)c(CCCCC)c1.[Cl-] | 79.3 | 16
Cc1nc(SCc2ccccc2)c2oc3ccccc3c2n1 | 34.5 | 143
CCc1ccc([C@@H]2CC=C(C(=O)O)[C@H](c3ccc(C(C)(C)C)cc3)N2S(=O)(=O)c2ccc(C)cc2)cc1 | 78.6 | 84.8
COc1ccc(/C=N/NC(=O)c2ccncc2)cc1CN1CCN(c2ccc(F)cc2)CC1 | 3.26 | 228
O=C(NCc1ccc(F)cc1)c1cc2ccccc2o1 | 48.5 | 254
CCCCN1CC(COc2ccccc2)OC1=O (centres undefined) | < 0 | 195
CCOC(=O)N=Nc1c2nc3nonc3[nH]c-2c2ccccc12 | 186 | 136
CC(=O)Oc1c(C)cc(Cl)cc1C(=O)Nc1ccc([N+](=O)[O-])cc1Cl | 113 | 230
O=C(NCCc1ccc(Cl)cc1)c1ccc(CNc2c(N3CCOCC3)c(=O)c2=O)cc1 | < 0 | 162
O=C(N/N=C/c1ccc([N+](=O)[O-])o1)C(O)c1ccccc1 (centres undefined) | 72.7 | 123
CC1CCC(C(C)C)C(OC(=O)C[n+]2c(-c3ccccc3)n(C)c3ccccc32)C1.[Cl-] (centres undefined) | 56.7 | 202
CC(NC(=O)c1cccs1)c1ccc(Cl)cc1 (centres undefined) | 2.59 | 251
COC(=O)c1c(NC(=O)CN2C(=O)NC3(CCCCC3C)C2=O)sc2c1CCC2 (centres undefined) | 4.39 | 78.7
O=C(CSc1ccccc1)NNC(=O)c1ccncc1 | 18.7 | 219
